Results reported in patent EP4382122A1, “PEPTIDE COMPLEX IPF-H2A FOR MODULATION IMMUNE FUNCTION OF THE HUMAN BODY” (Zhabilov, Harry H., priority 2022, dated 2024).
Like-named read-outs stand apart in the source and are kept apart here.

How the values were obtained:
HSV-1/HSV-2 [1] = test: Infectious viral yield, HSV-1/HSV-2 in Vero cells (text, type not separated); type: cell-based
HSV-1 (Victoria strain) [2] = test: Infectious viral yield of HSV-1 in Vero cells (Reed and Muench titration)
Experimental: (§1) Viral strains were cultured in DMEM nutrient medium containing 2% FBS,1% antibiotic solution (100 U/ml penicillin G sodium and 100 µg/ml streptomycin sulphate).
(§2) Infectious virus titer was account for, also by Reed and Muench's method of final dilutions, and expressed as TCID50 (50% Tissue Culture Infectious Dose) and also quantitatively through the colorimetric MTT method. After triple freezing and thawing, the resulting virus- containing was centrifuged (2500 rpm/min, 15 min at 4 °C), aliquoted and frozen at -80°C.
(§3) Immediately prior to work, ten-fold logarithmic dilutions of the relevant virus strain were prepared in DMEM nutrient medium containing 2% FBS, 1% antibiotic solution (100 U/mL penicillin G sodium and 100 µg/mL streptomycin sulphate). When the cell monolayer reached between 70- 80% confluence (concentration 5 × 10^3 cells/well, usually after 24 h), the nutrient medium was removed from the wells. The cell monolayer was infected with the prepared viral dilutions of 0.1 mL. With each viral dilution, 4 wells were infected. The virus was adsorbed for 1 h ina thermostat at a temperature of 37°C, then to each well was added 0.1 mL of nutrient medium. Four wells containing uninfected cells were used for cell control. Thus treated plate was incubated in a thermostat at a temperature of 37°C and at the required humidity. In the event of a cytopathic effect (CPE) (appearance of round cells, unevenly disseminated in the cell monolayer, with a tendency to formfoci), it was waited until the development of 2-3 + (50 - 75% of the cell monolayer) or until it stopped progressing. The viral infection titer is expressed as TCID50 (50% Tissue Culture Infectious Dose). The presence or absence of a viral cytopathic effect is determined by the following formula: T = (logofdilution,where%infectedisover50%) + (proportionalityfactor×logofdilutionfactor). […] Proportionality factor = [(%infectedover50%)−50%][(%infectedover50%)−(% infected below; 50%)].
(§4) Extracellular virus samples were titrated in a 24-hour Vero monolayer in 96-well plates, by taking into account the infectious viral titer in log10, according to the final dilution method of Reed & Muenh. Differences in infectious viral titers between experimental and control samples are expressed as Δlog. Based on the reported results, dose-response graphs were plotted and minimum inhibitory concentrations 50 (MIC50) were determined. Values of Δlog10 ≥ 1 are considered to be reliable results for the performed tests.

HSV-2 (Bja strain) = test: Infectious viral yield of HSV-2 in Vero cells (Reed and Muench titration)
Experimental: as §1, §2, §3, §4

Vero cells [3] = test: Cytotoxicity on Vero cells, microscopic observation of cell monolayer morphology; details: 72 h
Experimental: For analysis of the anti-proliferative and potentially antiviral properties of the IPF-H2A complex, according to the present invention, in cell culture, IPF-H2A was dissolved to an initial concentration of 50 mg/ml (background solution). Using the solution, a series of dilutions are done ex tempore with a nutrient medium DMEM (Dulbecco's Modified Eagle Medium, Sigma-Aldrich, Germany), which includes 2% fetal bovine serum (FBS, Gibco) and 1% antibiotic solution (100 U/ml penicillin and 100 µg/ml streptomycin sulphate (Gibco, USA)) (working solutions), which solutions are then filtered through sterile antibacterial filters with a pore diameter of 0.45 µm. As a model system in the tests was used a kidney monolayer cell line of African Green Monkey (Cercopithecus aethiops). […]

HSV-1/HSV-2 [4] = test: CPE inhibition test, microscopic, HSV-1/HSV-2 in Vero cells (type not separated); type: cell-based; details: infected Vero cells, at MNC, 72 hours of treatment
Experimental: Dose-dependent curves were derived to determine the inhibitory concentration leading to 50% inhibition of the viral cytopathic effect (IC50).
Initially, the antiviral activity of the IPF test substance was assessed by a CPE inhibition test. […] Cell cultures were observed daily under a light microscope as to theCPE development. […] The results of the experiments were evaluated on the basis of comparison with virus-free and no-added cells (cell control),and with cells infected with HSV-1/HSV-2 without substance addition (viral control).

HSV-1 (Victoria strain) [5] = test: CPE inhibition test with MTT Assay, HSV-1 in Vero cells; type: cell-based, Herpes Simplex virus type 1 (HSV-1)
Vero cells [6] = test: Cytotoxicity on Vero cells, MTT Assay; details: 72 h
Experimental: Using the solution, a series of dilutions are done ex tempore with a nutrient medium DMEM (Dulbecco's Modified Eagle Medium, Sigma-Aldrich, Germany), which includes 2% fetal bovine serum (FBS, Gibco) and 1% antibiotic solution (100 U/ml penicillin and 100 µg/ml streptomycin sulphate (Gibco, USA)) (working solutions), which solutions are then filtered through sterile antibacterial filters with a pore diameter of 0.45 µm. As a model system in the tests was used a kidney monolayer cell line of African Green Monkey (Cercopithecus aethiops).
Cells were cultured on DMEM nutrient medium with termoinactivated 10% FBS, 1% sodium pyruvate (Sigma- Aldrich, Germany) and antibiotics (penicillin (100 U/ml), streptomycin sulphate (100 µg/ml) (growingmedium). The cell cultures were incubated at 37 °C at 5% CO2 and the required humidity. The blending of the Vero cells was done at 1:3 - 1:5 at a density of about 2 × 10^5 cells/ml, then resuspended several times and transferred onto cell culture mattresses (25 cm^2). Before inoculating the cells with virus and/or IPF-H2A dilutions, the monolayer was washed three times with phosphate-buffered saline (PBS) with pH 7.4 for 1- 2 minutes, after which the solution was removed. All experiments were performed during the exponential phase of cell growth. […]

HCoV-229E [7] = type: cell-based, human coronavirus HCoV-229E; details: for Δlog10: HCoV-229E, vs virus control
HCoV-229E [8] = type: cell-based, human coronavirus HCoV-229E
[9] = tested on: human embryonic lung (Lep) cell line; test: Cytotoxicity on Lep cells, MTT test; design: CD50: unit not given beside the values
[10] = tested on: human embryonic lung (Lep) cell line; test: Cytotoxicity on Lep cells, microscopic surveillance of cell monolayer morphology; details: 96 hours
Experimental: As a model system is used monolayer of human embryonic lung (Lep) cell line. The cells are cultivated in DMEM with added thermally inactivated 10% FBS, 1% Sodium pyruvate (Sigma-Aldrich, Germany) and antibiotics (penicillin- 100 U/ml), streptomycin sulphate (100 µg/ml) (growth medium) and the cell cultures are incubated at 37°C in 5% CO2 and in the presence of the required humidity.
MTT analysis of the cell survival and proliferation was performed in a wide range of concentrations of the tested substance. […] The test substance is applied in concentration range 0.0001- 1 mg/ml, while the anti-nfluenza medicine Tamiflu® - 0.001- 7.5 mg/ml for 96 hours. The untreated Lep cells whose survival was accepted as 100%, were used as a negative control. […] The analysis of the cell morphology surveillance is synchronized with the MTT analysis of the cell surveillance.

Nc1nc2c(ncn2COCCO)c(=O)[nH]1 [ACV, 2-amino-1,9-dihydro-9-((2-hydroxyethoxy)methyl)-6H-purin-6-one]
concentration range that effectively inhibits the yield of infectious viral progeny / replication (HSV-1/HSV-2 [1]): 0.00001 to 1 mg/mL | Viral yield (log10 TCID50) (HSV-1 (Victoria strain) [2]; concentration 0.0005 mg/mL): 4.500 ± 0.763 log10 TCID50 | Δlog10 (HSV-1 (Victoria strain) [2]; concentration 0.0005 mg/mL): 0.8 | Viral yield (log10 TCID50) (HSV-1 (Victoria strain) [2]; concentration 0.005 mg/mL): 4.530 ± 0.166 log10 TCID50 | Δlog10 (HSV-1 (Victoria strain) [2]; concentration 0.005 mg/mL): 0.8 | Viral yield (log10 TCID50) (HSV-1 (Victoria strain) [2]; concentration 0.05 mg/mL): 4.300 ± 0.763 log10 TCID50 | Δlog10 (HSV-1 (Victoria strain) [2]; concentration 0.05 mg/mL): 1.0 | Viral yield (log10 TCID50) (HSV-1 (Victoria strain) [2]; concentration 0.1 mg/mL): 4.000 ± 0.288 log10 TCID50 | Δlog10 (HSV-1 (Victoria strain) [2]; concentration 0.1 mg/mL): 1.6 | Viral yield (log10 TCID50) (HSV-1 (Victoria strain) [2]; concentration 1 mg/mL): 2.7 ± 0.500 log10 TCID50 | Δlog10 (HSV-1 (Victoria strain) [2]; concentration 1 mg/mL): 2.6 | Viral yield (log10 TCID50) (HSV-2 (Bja strain); concentration 0.0005 mg/mL): 5.567 ± 0.000 log10 TCID50 | Viral yield (log10 TCID50) (HSV-2 (Bja strain); concentration 0.005 mg/mL): 5.300 ± 0.288 log10 TCID50 | Δlog10 (HSV-2 (Bja strain); concentration 0.005 mg/mL): 0.8 | Viral yield (log10 TCID50) (HSV-2 (Bja strain); concentration 0.05 mg/mL): 4.500 ± 0.125 log10 TCID50 | Δlog10 (HSV-2 (Bja strain); concentration 0.05 mg/mL): 1.0 | Viral yield (log10 TCID50) (HSV-2 (Bja strain); concentration 0.1 mg/mL): 4.300 ± 0.237 log10 TCID50 | Δlog10 (HSV-2 (Bja strain); concentration 0.1 mg/mL): 1.0 | Viral yield (log10 TCID50) (HSV-2 (Bja strain); concentration 1 mg/mL): 4.005 ± 0.166 log10 TCID50 | Δlog10 (HSV-2 (Bja strain); concentration 1 mg/mL): 1.3 | CD50 (Vero cells [3]): 0.5 ± 0.02 mg/mL | CPE suppression of HSV-1/HSV-2 (HSV-1/HSV-2 [4]): less pronounced CPE inhibitory effect | % cellular protection at MNC (HSV-1 (Victoria strain) [5]; HSV-1 (Victoria strain), Vero cells, MTT Assay): 100% | protection (HSV-1 (Victoria strain) [5]; HSV-1 strain Victoria, concentration range of 0.0005- 0.01 mg/mL): 100% | CD50 (Vero cells [6]): 0.5 ± 0.1 mg/mL

CCOC(=O)C1=C[C@@H](OC(CC)CC)[C@H](NC(C)=O)[C@@H](N)C1 [Tamiflu, oseltamivir phosphate]
concentration range that effectively inhibits the infectious viral yield / replication (HCoV-229E [7]): 0.00001 to 1 mg/mL | Δlog10 (HCoV-229E [7]; concentration 0.0001 mg/ml): 0.8 | Δlog10 (HCoV-229E [7]; concentration 0.001 mg/ml): 1.3 | Δlog10 (HCoV-229E [7]; concentration 0.01 mg/ml): 1.3 | Δlog10 (HCoV-229E [7]; concentration 0.1 mg/ml): 1.3 | Δlog10 (HCoV-229E [7]; concentration 1.0 mg/ml): 1.8 | inhibition of CPE of HCoV-229E (HCoV-229E [8]): Less expressed CPE inhibition | CD50 ([9]; 96 hours, MTT test): 2.5 ±0.06 | MNC ([9]; 96 hours, MTT test): 0.005 ± 0.15 mg/mL | toxicity relative to IPF-H2A peptide complex ([9]; comparison of cell survival data): twentyfold more toxic | CD50 [10]: 2.5 ±0.02 | MNC [10]: 0.001 ± 0.6 mg/mL
